Like-named read-outs stand apart in the source and are kept apart here.
What was measured:
male Wistar rats [1] = experiment: Diuresis test: ED50 dose response, intravenous, urine electrolytes after 2.5 hours; format: in vivo; conditions: for ED50: Rattus norvegicus, iv, urine collected after 2.5 hours
Procedure: For the tests, male Wistar rats of about 130 g body weight from which food had been withheld for 18 hours were used. […] Intravenous administration for determining K^+ was at dosage intervals for the actiee substance of 0.05, 0.1, 0.2, 0.3, 0.6, 1, and 2 mg/kg: for determining Na^+ at dosage intervals of 0.5, 1, 2, 4, 8, 16 and 20 mg/kg. For the prior art substances compared, the same tests were made and these substances were further administered at 30 mg/kg and 100 mg/kg. Injection was into the caudal vein under light etherization. […] Peroral administration was by means of a stomach tube into the gastrointestinal tract.
Dose response curves were constructed by the use of non-linear regression analysis using the NONLIN computer program of C. Daniel and F. S. Wood in "Fitting Equations to Data" (J. Wiley & Sons, New York, 1980).
The characteristic quantity ED50 (potency) used in determining the diuretic activity is defined as the amount of active substance per kilogram of body weight required to produce a response in 50 percent of the subjects.

male Wistar rats [2] = conditions: furosemide 8.27 mg/kg i.v. alone; 1.5 hours; mean; control 5.0
Procedure: (§1) They were orally given 20 ml/kg of an 0.9% NaCl solution just before the test substance was administered intravenously. […] Injection was into the caudal vein under light ether anasthesia. As a rule six test animals were used per test. The animals were individually placed into diuresis cages and the urine was collected after 1.5 hours. Analysis was performed as for the determination of potency given above. IA stands for 2,4,7-triamino-6-[4-(2-hydroxy-3-dimethylaminopropoxy)phenyl]-pteridine.

male Wistar rats [3] = experiment: Diuresis test with individual pteridine compounds, intravenous, urine after 2.5 hours; format: in vivo; conditions: 2.5 μmol/kg i.v.; for K^+ -excretion: control 0.609; for Na^+ -excretion: control 0.83; for Volume of urine: control 7.37
Procedure: as §1, with “The animals were individually placed into diuresis cages and the urine was collected after 1.5 hours.” left out

[4] = cited from earlier work
[5] = K^+ (potassium-sparing), read-out: ED50 K^+
[6] = Na^+ (natriuretic), read-out: ED50 Na^+

Row | Structure (SMILES) | K^+ -excretion (male Wistar rats [3]) [mmol/kg] | Na^+ -excretion (male Wistar rats [3]) [mmol/kg] | Volume of urine (male Wistar rats [3]) [L/kg] | further results
1 | CN(C)CCCOc1ccc(-c2nc3c(N)nc(N)nc3nc2N)cc1 [DES-OH, 2,4,7-triamino-6-[4-(3-dimethylaminopropoxy)phenyl]-pteridine, reference compound] | – | – | – | ED50 (male Wistar rats [1]; [5]): 0.54 µmol/kg; ED50 (male Wistar rats [1]; [6]): 5.53 µmol/kg
2 | NS(=O)(=O)c1cc(C(=O)O)c(NCc2ccco2)cc1Cl [Furosemide, 4-chloro-N-furfuryl-5-sulfamoylanthranilic acid] | – | – | – | Volume of urine (male Wistar rats [2]): 0.0525 L/kg
3 | CN(C)CC(O)COc1ccc(-c2nc3c(N)nc(N)nc3nc2N)cc1 (centres unmarked) [IA, 2,4,7-triamino-6-[4-(2-hydroxy-3-dimethylaminopropoxy)phenyl]-pteridine] | 0.180 | 2.78 | 0.01598 | ED50 (male Wistar rats [1]; [5]): 0.24 µmol/kg; ED50 (male Wistar rats [1]; Mg^+2 (magnesium-sparing), read-out: ED50 Mg^+2): 0.4 µmol/kg; ED50 (male Wistar rats [1]; [6]): 9.36 µmol/kg; diuretic efficacy (natriuretic, potassium- and magnesium-sparing properties) (male Wistar rats [1]; i.v.): outstanding diuretic efficacy
4 | CCNCC(O)COc1ccc(-c2nc3c(N)nc(N)nc3nc2N)cc1 (centres unmarked) [IB, 2,4,7-Triamino-6-[4-(2-hydroxy-3-ethylaminopropoxy)phenyl]-pteridine] | 0.161 | 2.98 | 0.01878 | –
5 | CNCC(O)COc1ccc(-c2nc3c(N)nc(N)nc3nc2N)cc1 (centres unmarked) [IC, 2,4,7-Triamino-6-[4-(2-hydroxy-3-methylaminopropoxy)phenyl]-pteridine] | 0.211 | 2.63 | 0.01585 | –
6 | Nc1nc(N)c2nc(-c3ccc(OCC(O)CN4CCOCC4)cc3)c(N)nc2n1 (centres unmarked) [ID, 2,4,7-Triamino-6-[4-(2-hydroxy-5-morpholinopropoxy)phenyl]-pteridine] | 0.237 | 2.78 | 0.0193 | –
7 | CCN(CC)CC(O)COc1ccc(-c2nc3c(N)nc(N)nc3nc2N)cc1 (centres unmarked) [IE, 2,4,7-Triamino-6-[4-(2-hydroxy-3-diethylaminopropoxy)phenyl]-pteridine] | 0.163 | 2.61 | 0.01102 | –
8 | Nc1nc(N)c2nc(-c3ccc(OCC(O)CN4CCCCC4)cc3)c(N)nc2n1 (centres unmarked) [IF, 2,4,7-Triamino-6-[4-(2-hydroxy-3-piperidinopropoxy)phenyl]-pteridine] | 0.191 | 1.95 | 0.01017 | –
9 | Nc1nc(N)c2nc(-c3ccc(OCC(O)CN4CCCC4)cc3)c(N)nc2n1 (centres unmarked) [IG, 2,4,7-Triamino-6-[4-(2-hydroxy-3-pyrrolidinopropoxy)phenyl]-pteridine] | 0.172 | 2.14 | 0.0133 | –
10 | CC(C)NCC(O)COc1ccc(-c2nc3c(N)nc(N)nc3nc2N)cc1 (centres unmarked) [IH, 2,4,7-Triamino-6-[4-(2-hydroxy-3-isopropylaminopropoxy)phenyl]-pteridine] | 0.161 | 2.49 | 0.01474 | –
11 | CCCCNCC(O)COc1ccc(-c2nc3c(N)nc(N)nc3nc2N)cc1 (centres unmarked) [IJ, 2,4,7-Triamino-6-[4-(2-hydroxy-3-n-butylaminopropoxy)phenyl]-pteridine] | 0.176 | 2.86 | 0.01859 | –
12 | CC(C)N(CC(O)COc1ccc(-c2nc3c(N)nc(N)nc3nc2N)cc1)C(C)C (centres unmarked) [IK, 2,4,7-Triamino-6-[4-(2-hydroxy-3-diisopropylaminopropoxy)phenyl]-pteridine] | 0.191 | 2.08 | 0.01024 | –
13 | CCCCN(CCCC)CC(O)COc1ccc(-c2nc3c(N)nc(N)nc3nc2N)cc1 (centres unmarked) [IL, 2,4,7-Triamino-6-[4-(2-hydroxy-3-di-n-butylaminopropoxy)phenyl]-pteridine] | 0.191 | 2.34 | 0.01376 | –
14 | Nc1nc(N)c2nc(-c3ccccc3)c(N)nc2n1 [Triamterene, 2,4,7-triamino-6-phenyl-pteridine, reference compound] | 0.402 | 1.17 | 0.00796 | ED50 (male Wistar rats [1]; [5]): 1.87 µmol/kg; ED50 (male Wistar rats [1]; [6]): 4.4 µmol/kg
15 | Nc1nc(N)c2nc(-c3ccc(OCCCCC(=O)O)cc3)c(N)nc2n1 [Val-O-TA, 2,4,7-triamino-6-[4-(4-carboxybutoxy)phenyl]-pteridine] | – | – | – | diuretic, natriuretic, and antikaliuretic activity ([4]; administered intravenously): exhibit diuretic, natriuretic, and antikaliuretic activity; compensation of kaliuresis produced by furosemide ([4]; with Val-O-TA): compensated practically fully

Source: patent US4910203A, “Pteridine compounds” (priority 1984, dated 1990)
